Values after ≈ are worked out from the molar mass of the structure shown.

The test system of this experiment is Mycobacterium tuberculosis variant bovis BCG. The experiment is described as follows: microbe, parasite or virus in culture. Type of experiment: functional.
Compound `Cc1cc(=O)[nH]c(-n2nc(C)cc2NC(=O)COc2ccccc2C)n1` gave an MIC90 of 6.9 µM (≈ 2.44 µg/mL).
For `COc1ccc(-c2nc(C(=O)N3CCCCC3c3nc4ccccc4s3)cs2)cc1` (configuration not stated) the value was 4.8 µM (≈ 2.09 µg/mL).
In the case of `Cc1c(Cl)ccc2sc(N(CCN(C)C)C(=O)c3ccc(S(C)(=O)=O)cc3)nc12`, the MIC90 worked out at 7 µM (≈ 3.16 µg/mL).
The same measure for `Cc1cc(NC(=O)c2cc(Br)ccc2Cl)n(-c2nc(C)c(C)c(=O)[nH]2)n1`: 5.3 µM (≈ 2.31 µg/mL); for `CCOc1ccccc1NC(=O)[C@H](Cc1ccccc1)NC(=O)c1cccs1`: 9.5 µM (≈ 3.75 µg/mL).
For the compound `COc1ccc(-c2nsc(SCC(=O)N3CCCC3)n2)cc1`, the MIC90 was determined as 5.6 µM (≈ 1.88 µg/mL).
Consider `CCOc1ccc(CC(=O)Nc2cc(C)nn2-c2nc(C)c(CC)c(=O)[nH]2)cc1`, for which the MIC90 was found to be 3.3 µM (≈ 1.31 µg/mL).
The same measure for `Cc1cc(C)c2cc(CN(Cc3cccnc3)C(=O)c3ccc(F)cc3)c(Cl)nc2c1`: 2.9 µM (≈ 1.26 µg/mL).
With `c1cc(CN2CCC3(CC2)OCCc2sccc23)nc(-c2ccc3c(c2)OCO3)c1`, the MIC90 was 2.3 µM (≈ 0.967 µg/mL).
The same measure for `Cc1cc(C(=O)Nc2nc(-c3ccccn3)cs2)no1`: 4.6 µM (≈ 1.32 µg/mL); for `CCCCOc1ccc(C(=O)Nc2nc(-c3ccccn3)cs2)cc1`: 1.6 µM (≈ 0.566 µg/mL).
The same measure for `CCCNc1cc(-c2ccccc2)nc(-n2nc(C)cc2C)n1`: 5 µM (≈ 1.54 µg/mL); for `CSc1ncc(C(=O)Nc2nc(-c3ccc(Cl)cc3)cs2)cn1`: 3.3 µM (≈ 1.2 µg/mL); for `Cc1ccc(Cl)c2sc(N(CCN(C)C)C(=O)c3cccc(S(C)(=O)=O)c3)nc12`: 4.2 µM (≈ 1.9 µg/mL).
The same measure for `O=C(Nc1nc2c(F)cc(F)cc2s1)C1CCCN1S(=O)(=O)c1cccs1` (configuration not stated): 6.3 µM (≈ 2.71 µg/mL).
On to `Cc1cc2ncn(-c3nccc(N4CCN(Cc5ccncc5)CC4)n3)c2cc1C`, for which the MIC90 was determined as 2.8 µM (≈ 1.12 µg/mL).
For `COCCCNC(=N)c1ccc(NC(=O)c2ccc(C(=O)Nc3ccc(C(=N)NCCCOC)cc3)cc2)cc1` the value was 0.5 µM (≈ 0.272 µg/mL).
For the compound `COc1ccc(CCC(=O)Nc2ccccc2Nc2ccc(OC)cc2)cc1`, the MIC90 was 3.9 µM (≈ 1.47 µg/mL).
In turn, `CCc1ccc(Nc2nnc(SCc3cc(C)on3)s2)cc1` returned an MIC90 of 7.4 µM (≈ 2.46 µg/mL).
`O=C(CCCOc1ccccc1)Nc1nc(-c2ccccn2)cs1` showed an MIC90 of 5.4 µM (≈ 1.83 µg/mL).
For the compound `CC(=O)Nc1ccc(S(=O)(=O)Nc2ccc(N3CCCCC3)cc2)cc1`, the MIC90 came out at 5.2 µM (≈ 1.94 µg/mL).
For the compound `CC1(C)NC(N)=NC(=N)N1OCCCOc1ccc2ccccc2c1`, the MIC90 is 9.5 µM (≈ 3.24 µg/mL).
The same measure for `CCCc1cc(N2CCN(CC#N)CC2)n2ncc(-c3ccccc3)c2n1`: 5.1 µM (≈ 1.84 µg/mL); for `COCc1nc(N2CCNCC2)c2c(C)nn(-c3ccc(C)cc3)c2n1`: 3 µM (≈ 1.06 µg/mL); for `Cc1onc(-c2ccccc2)c1C(=O)Nc1nc(-c2ccccn2)cs1`: 4.3 µM (≈ 1.56 µg/mL).
As for `N#Cc1ccc(-c2ccc(OCC(=O)NNC(=O)c3ccco3)cc2)cc1`, the MIC90 came to 2.8 µM (≈ 1.01 µg/mL).
The same measure for `c1cc(COc2ccc(C3=NCCN3)cc2)nc(COc2ccc(C3=NCCN3)cc2)c1`: 6.1 µM (≈ 2.61 µg/mL); for `COc1ccc(-c2ccc(Nc3cccc(S(=O)(=O)CCNCC4CCCO4)c3)nc2)cn1` (configuration not stated): 7 µM (≈ 3.28 µg/mL); for `CC(=O)N1CCc2cc3nc(C)cc(C)c3cc21`: 3.5 µM (≈ 0.841 µg/mL).
The same measure for `O=C(O)COCC(=O)NNC(=O)c1ccncc1`: 2.3 µM (≈ 0.582 µg/mL).
Compound `O=C(c1cnn(C(=O)c2ccco2)c1)c1cc(F)ccc1O` displayed an MIC90 of 4.2 µM (≈ 1.26 µg/mL).
The same measure for `COc1cc(CN2CCCC(c3cc(C(F)(F)F)n4nc(C)cc4n3)C2)ccc1O` (configuration not stated): 6 µM (≈ 2.52 µg/mL); for `COc1ccc(-c2ccc(Nc3cccc(S(=O)(=O)CCNCC(C)(C)C)c3)nc2)cn1`: 2.9 µM (≈ 1.32 µg/mL); for `COc1ccccc1N1CCN(c2cccc3c2nc(/C=C/c2ccncc2)n3C2CCNCC2)CC1`: 5.5 µM (≈ 2.72 µg/mL).
For `O=C(NC(=Cc1ccc(-c2cccc(C(F)(F)F)c2)o1)C(=O)N1CCOCC1)c1ccccc1` the value was 6.8 µM (≈ 3.2 µg/mL); for `O=C(Nc1nc(-c2ccccn2)cs1)c1cc2ccccc2o1`, 7 µM (≈ 2.25 µg/mL); for `Cc1csc2nc(Cc3ccc(C(=O)c4ccc(C(=O)OCc5ccccc5)cc4)cc3)oc(=O)c12`, 2.3 µM (≈ 1.14 µg/mL).
For `Cn1nc(C(=O)N2CCc3sccc3C2c2ccccc2)c2ccccc2c1=O` (configuration not stated) the value was 2 µM (≈ 0.803 µg/mL); for `CN(C)c1ccc(NC(=O)Nc2cccc3ncccc23)cc1`, 9.8 µM (≈ 3 µg/mL); for `FC(F)(F)c1cc(SCc2ccccc2)nc(-c2ccccn2)n1`, 7.1 µM (≈ 2.47 µg/mL).
`Cc1ccc2nc(C)c(-c3ccn(Cc4ccccc4)n3)n2c1` showed an MIC90 of 5.9 µM (≈ 1.78 µg/mL).
As to `COc1cc(CCN2CC[C@H](NC(=O)c3ccc(Cl)c(Cl)c3)C2)ccc1OC1CCNCC1`, the MIC90 came out at 7 µM (≈ 3.45 µg/mL).
In the case of `Cc1cc(C)c2cc(CN(Cc3cccnc3)C(=O)c3ccccc3F)c(Cl)nc2c1`, the MIC90 was found to be 1.7 µM (≈ 0.738 µg/mL).
`CCCc1cc(-c2nc(-c3ccc(OC)c(OC)c3)cs2)ccn1` returned an MIC90 of 6.7 µM (≈ 2.28 µg/mL).
For `COc1cc(NC(=O)c2sc(-c3ccc(Cl)cc3)cc2/N=C2/CCCCN2C)ccc1OCCN1CCCC1` the value was 6 µM (≈ 3.4 µg/mL).
Turning to `CCOc1cc(OC)c(C(=O)Nc2cccc3c2CCN(C)C3C)cc1Cl` (configuration not stated), the MIC90 is 5.6 µM (≈ 2.18 µg/mL).
The same measure for `c1ccc(-c2ccc(CNCCn3ccnc3-c3ccccc3)cc2)cc1`: 9.3 µM (≈ 3.29 µg/mL).
Turning to `Brc1cncc(-c2cc(NCCCn3ccnc3)nc(-c3ccccc3)n2)c1`, the MIC90 was 7.6 µM (≈ 3.31 µg/mL).
The same measure for `Cc1ccc(OCC(=O)Nc2ccc(C(=O)c3c(C)nc4sccn34)cc2)c(C)c1`: 3.9 µM (≈ 1.64 µg/mL).
Turning to `Cc1ccc2nc(C(F)(F)F)c(C(=O)NCc3cccs3)n2c1`, the MIC90 worked out at 1.2 µM (≈ 0.407 µg/mL).
The same measure for `Br.CC(C)(C)c1ccccc1OCCCON1C(=N)N=C(N)NC1(C)C`: 1.8 µM; for `Cn1c(=O)c2c([S+](C)[O-])snc2n(C)c1=O` (configuration not stated): 5.6 µM (≈ 1.45 µg/mL); for `c1ccc(CCNc2cc(-c3ccccc3)nc3nncn23)cc1`: 8.1 µM (≈ 2.55 µg/mL).
For `O=C(CSc1ccc(Cl)cc1)Nc1nc(-c2ccccn2)cs1` the value was 4.7 µM (≈ 1.7 µg/mL); for `Cc1ccc(-c2nnc(NC(=O)c3ccc(F)cc3)o2)cc1C`, 2.3 µM (≈ 0.716 µg/mL).
The compound `Cn1c(=O)c(C(=O)NNC(=O)c2cccc(Cl)c2)c(O)c2ccccc21` gave an MIC90 of 5.3 µM (≈ 1.97 µg/mL).
`O=C(COc1ccccc1)N1CCN(c2cnc3ccccc3n2)CC1` displayed an MIC90 of 9.3 µM (≈ 3.24 µg/mL).
For `NC(=O)c1cnc2ccc(S(=O)(=O)c3ccccc3)cc2c1Nc1ccc(O)c(F)c1` the value was 7.5 µM (≈ 3.28 µg/mL); for `CCN(CC)CCCn1c(Sc2ccnc(N3CCN(c4ccncc4)CC3)n2)nnc1-c1ccccn1`, 2.4 µM (≈ 1.27 µg/mL); for `O=C(Nc1ccc(F)c(Cl)c1)c1cnc(N2CCN(c3ncccn3)CC2)c2ccccc12`, 7.5 µM (≈ 3.47 µg/mL).
In the case of `CC(C)c1ccc2oc(-c3ccc(NC(=O)c4cccnc4)cc3)nc2c1`, the MIC90 is 1.2 µM (≈ 0.429 µg/mL).
The same measure for `CN(C)CCN(Cc1ccc(-c2cccc(CN)c2)cc1)C(=O)CCC1CCCC1`: 9.9 µM (≈ 4.04 µg/mL); for `O=C(Nc1ccccc1C(F)(F)F)N1CCN(c2ccc3nnc(-c4ccc(F)cc4)n3n2)CC1`: 4 µM (≈ 1.94 µg/mL).
For `CN(Cc1nc2ccccc2s1)C(=O)c1ccc2c(c1)CC(c1ccccc1)OC2=O` (configuration not stated) the value was 4.7 µM (≈ 2.01 µg/mL).
The compound `O=C(N[C@@H](Cc1ccccc1)C(=O)Nc1ccccc1N1CCOCC1)c1cccs1` registered an MIC90 of 3.2 µM (≈ 1.39 µg/mL).
`Cc1cc(C)n(-c2nc(O)cc(-c3ccccc3)n2)n1` registered an MIC90 of 2 µM (≈ 0.533 µg/mL).
Compound `Cc1cccc2nc(C(=O)Nc3nc(CN4CCC(C)CC4)cs3)cn12` registered an MIC90 of 2 µM (≈ 0.739 µg/mL).
On to `Cc1cc(N2CCCN(C)CC2)nc(Nc2cc(F)cc(F)c2)n1`, for which the MIC90 worked out at 3.4 µM (≈ 1.13 µg/mL).
The same measure for `Cc1cc(S(=O)(=O)c2ccccc2)cc2c(Nc3ccc(N4CCOCC4)cc3)c(C(N)=O)cnc12`: 8.8 µM (≈ 4.42 µg/mL).
For `Cc1ccc(NC(=O)c2cccc(Cl)c2F)cc1-c1ccc(C(N)=O)cc1` the value was 9.5 µM (≈ 3.64 µg/mL); for `O=C(Nc1ccc(C(=O)N2CCCCC2c2nc3ccccc3s2)cc1)c1ccco1` (configuration not stated), 0.1 µM (≈ 0.0432 µg/mL); for `Cc1cc(C)n(-c2nc3ccccc3c(=O)[nH]2)n1`, 3.3 µM (≈ 0.793 µg/mL).
Take `Nc1cc(-c2ccc(Cl)cc2)nn1-c1cccc(C(=O)NCC2CC(=O)N(c3ccccc3)C2)c1` (configuration not stated): the MIC90 turned out to be 5.9 µM (≈ 2.87 µg/mL).
In turn, `CCn1c(-c2ccccc2)nc2c(-c3ccc(C)cc3)ncc(OCCCN)c21` yielded an MIC90 of 8.8 µM (≈ 3.4 µg/mL).
The same measure for `N#Cc1cc(C(=O)COc2ccc(CC3SC(=O)NC3=O)cc2)ccc1N` (configuration not stated): 1.1 µM (≈ 0.42 µg/mL).
For `Cc1cc(C)c2nc3c(cc2c1)CN(Cc1ccco1)C(=O)O3` the value was 9 µM (≈ 2.78 µg/mL).
Turning to `COc1ccccc1OCCCCn1c(C2CC2)nc2ccccc21`, the MIC90 is 3 µM (≈ 1.01 µg/mL).
Take `Cn1cc(NC(=O)c2cc(NC(=O)CNC(=N)N)cn2C)cc1C(=O)NCCC(=N)N` [NETROPSIN CHLORIDE]: the MIC90 came to 3.6 µM.
Compound `CC(C)COc1ccc(C(=O)Nc2ccc(N3CCN(C)CC3)cc2)cc1` returned an MIC90 of 6.9 µM (≈ 2.54 µg/mL).
The same measure for `CN(C)c1cc(C(=O)NCC2CCCCC2)ccc1NC(=O)OCc1ccccc1`: 5.6 µM (≈ 2.29 µg/mL); for `CNc1nc(SC)nc2ccccc12`: 0.3 µM (≈ 0.0616 µg/mL).
In turn, `CCCc1cc(=O)[nH]c(-n2nc(C)cc2NC(=O)c2cc3ccccc3o2)n1` gave an MIC90 of 1.4 µM (≈ 0.528 µg/mL).
The compound `Cc1ccc(O)cc1Nc1ccnc2ccc(-c3cccc(CNCCN(C)C)c3)cc12` came in with an MIC90 of 9.1 µM (≈ 3.88 µg/mL).
For `O=C(Nc1ccc(C(=O)Nc2cccc(C3=NCCN3)c2)cc1)Nc1ccc(C2=NCCN2)cc1` the value was 4.6 µM (≈ 2.15 µg/mL); for `Cc1ccc(CNC(=O)c2cnn3c2NC(c2ccc(C)cc2)CC3C(F)F)cc1` (configuration not stated), 0.9 µM (≈ 0.369 µg/mL).
The same measure for `O=C(NC1CCN(Cc2ccsc2)C1)c1sccc1-c1cccc(Cl)c1` (configuration not stated): 9 µM (≈ 3.63 µg/mL); for `Cc1ccc2[nH]c(C3CCCNC3)c(-c3ccncc3)c2c1` (configuration not stated): 8.9 µM (≈ 2.59 µg/mL); for `Cc1ccc(Cl)cc1Oc1ccncc1CNc1ccccc1S(C)(=O)=O`: 7.1 µM (≈ 2.86 µg/mL).
The same measure for `Cc1ccc2nc(SCC(=O)N(C(C)C)C(C)C)[nH]c2c1`: 9.9 µM (≈ 3.02 µg/mL).
In turn, `O=C(Nc1ccccc1-c1nc(Cl)cs1)OCC1CCNCC1` gave an MIC90 of 5.2 µM (≈ 1.83 µg/mL).
For `Nc1ccccc1NC1CCN(Cc2ccccc2)CC1` the value was 3.6 µM (≈ 1.01 µg/mL); for `COc1ccc(-c2cccc(NC(=O)NC3CCCCC3)c2)cn1`, 8.8 µM (≈ 2.86 µg/mL).
The same measure for `CCCSc1ncccc1C(=O)Nc1ccccc1Nc1ccccc1`: 0.8 µM (≈ 0.291 µg/mL).
With `Nc1nc(SCc2cccc(F)c2F)nc2[nH]c(=O)cnc12`, the MIC90 worked out at 4.4 µM (≈ 1.41 µg/mL).
As to `Cc1ccc(Nc2ccc(C(=O)O)cc2N)cc1`, the MIC90 was determined as 7.9 µM (≈ 1.91 µg/mL).
For `O=C(NNC(=O)c1ccc([N+](=O)[O-])o1)c1ccc2ccccc2c1` the value was 7.2 µM (≈ 2.34 µg/mL); for `O=C(C1CCN(c2nnc(-n3cccc3)s2)CC1)N1CCC(Cc2ccccc2)CC1`, 3.4 µM (≈ 1.48 µg/mL).
